Data set [1] is described as follows: Phototoxicity against human A549 cells assessed as reduction in cell viability preincubated for 24 hrs followed by 7.5 to 10 mW/cm^-2 red light irradiation and measured after 24 hrs by MTT assay. The note with it: A549, light or radiation study. Format: functional, cell-based. For orientation: Tetrazolium assays rely on reduction of a dye to a coloured formazan, in cell work by metabolically active cells.

Data set [2] in a line: Fluorescence property of the compound in DMSO assessed as fluorescence quantum yield by photoluminescence quantum yield spectrometer. It counts as physicochemical.
The subject of data set [3] is NCI-H1299. Description: Dark toxicity against human NCI-H1299 cells assessed as reduction in metabolic activity at <1 uM incubated for 4 hrs by MTT assay. The following applies: nci-h1299, 4 h. Format: cell-based.
Data set [4] is described as follows: Induction of singlet oxygen generation in THF assessed as singlet oxygen quantum yield by comparative photoluminescence method. It counts as functional.
In data set [5] the test system is NCI-H1299. In words: Dark toxicity against human NCI-H1299 cells assessed as reduction in metabolic activity at 10 uM incubated for 4 hrs by MTT assay. It counts as cell-based. Set-up: scale not given: the % may be the effect or the level left. The following applies: nci-h1299, 4 h.
Data set [6] in a line: Fluorescence property of the compound in THF assessed as fluorescence quantum yield by photoluminescence quantum yield spectrometer. Format: physicochemical.
Data set [7] can be described thus: Phototoxicity against human NCI-H1299 cells assessed as reduction in cell viability preincubated for 24 hrs followed by 7.5 to 10 mW/cm^-2 red light irradiation and measured after 24 hrs by MTT assay. The note with it: NCI-H1299, light or radiation study. It counts as functional, cell-based.
Data set [8] concerns A549. In words: Dark toxicity against human A549 cells assessed as reduction in metabolic activity at <1 uM incubated for 4 hrs by MTT assay. Format: cell-based. The note with it: a549, 4 h.
Data set [9] in a line: Fluorescence property of the compound in toluene assessed as fluorescence quantum yield by photoluminescence quantum yield spectrometer. It counts as physicochemical.
In data set [10] the test system is A549. Description: Dark toxicity against human A549 cells assessed as reduction in metabolic activity at 10 uM incubated for 4 hrs by MTT assay. Format: cell-based. Set-up: scale not given: the % may be the effect or the level left. The following applies: a549, 4 h.
Data set [11] concerns A549. In words: Dark toxicity against human A549 cells assessed as reduction in metabolic activity at 5 uM incubated for 4 hrs by MTT assay relative to control. It counts as cell-based. Set-up: scale not given: the % may be the effect or the level left. The following applies: a549, 4 h.
Data set [12] concerns A549. Description: Photocytotoxicity in human A549 cells assessed as cell viability at 10 uM measured after 24 hrs by MTT assay relative to control. It counts as functional. The following applies: read-out: Activity.

pIC50: −log10 of the molar value.

The term pIC50 denotes −log10 of the IC50, conventionally taken in molar units. In the case of `CC(C)(C)OC(=O)N/N=C(\c1ccccc1)c1c2nc(c(-c3ccccc3)c3ccc([nH]3)c3ccc([nH]3)c(-c3ccccc3)c3ccc1[nH]3)C=C2`, the figures for the negative logarithm of the IC50 (pIC50) in [1] and in data set [7] were 6.02 and 6.27, respectively. Also, the Activity in data set [2] was 0.298; with NCI-H1299 [3], “Non-toxic”; in [4], 0.46; in the data set with NCI-H1299 [5] it was “Non-toxic”; in data set [6] it was 0.159; with A549 [8], “Non-toxic”.

With `C/C(=N\Nc1ccc([N+](=O)[O-])cc1[N+](=O)[O-])c1c2nc(c(-c3ccccc3)c3ccc([nH]3)c3ccc([nH]3)c(-c3ccccc3)c3ccc1[nH]3)C=C2`, the Activity in [9] is given as 0.002; in the data set on NCI-H1299 [3] it was “Non-toxic”; with A549 [8] it was “Non-toxic”.

Turning to `C/C(=N\NS(=O)(=O)c1ccc(C)cc1)c1c2nc(c(-c3ccc(O)cc3)c3ccc([nH]3)c3ccc([nH]3)c(-c3ccc(O)cc3)c3ccc1[nH]3)C=C2`, the pIC50 in data set [1] was 6.05; in [7], 6.56. Further, the Activity in [2] was 0.212; with NCI-H1299 [3], “Non-toxic”; in [4], 0.19; in data set [6], 0.073; in the data set with A549 [10], 13.93%; with A549 [11] it was 17.95%. Moreover, the Activity result in the data set with A549 [8] is listed as “Non-toxic”.

With `CC(C)(C)OC(=O)N/N=C(\c1ccccc1)c1c2nc(c(-c3ccc([N+](=O)[O-])cc3)c3ccc([nH]3)c3ccc([nH]3)c(-c3ccc([N+](=O)[O-])cc3)c3ccc1[nH]3)C=C2`, the Activity is 0.197 in data set [9]; “Non-toxic” in the data set on NCI-H1299 [3]; 0.31 in data set [4]; 51.15% in the data set with NCI-H1299 [5]; 48.37% in the data set with A549 [10]; “Non-toxic” in the data set with A549 [8]. Moreover, the pIC50 in [1] was 5.67; in data set [7], 5.63.

Turning to `C/C(=N\NC(=O)c1ccccc1)c1c2nc(c(-c3ccccc3)c3ccc([nH]3)c3ccc([nH]3)c(-c3ccccc3)c3ccc1[nH]3)C=C2`, the pIC50 in [1] was 6.10; in data set [7], 6.79. The Activity in data set [2] is 0.211; with NCI-H1299 [3], “Non-toxic”; in data set [4] it was 0.11; in the data set on NCI-H1299 [5] it was “Non-toxic”; in data set [6] it was 0.111; in the data set with A549 [10], “Non-toxic”. The Activity entry in the data set on A549 [8] was “Non-toxic”.

Turning to `C/C(=N/NC(=O)OC(C)(C)C)c1c2nc(c(-c3ccc([N+](=O)[O-])cc3)c3ccc([nH]3)c3ccc([nH]3)c(-c3ccc([N+](=O)[O-])cc3)c3ccc1[nH]3)C=C2`, the Activity in [9] was 0.195; in the data set with NCI-H1299 [3], “Non-toxic”; in data set [4], 0.22; in the data set with NCI-H1299 [5], 53.41%; in the data set with A549 [10] it was 49.14%; in the data set on A549 [8] it was “Non-toxic”. For the same compound, the results for the pIC50 in [1] and in data set [7] were 6.13 and 6.51, respectively.

In the case of `C1=Cc2nc1c(-c1ccccc1)c1ccc([nH]1)c(-c1ccccc1)c1ccc([nH]1)c1ccc([nH]1)c2-c1ccccc1`, the Activity in data set [2] is 0.22; in data set [4] it was 0.22; in [6], 0.12. Moreover, in the data set with A549 [12], the viability at 10 µM worked out at 93%.

Take `Oc1cccc(-c2c3nc(c(-c4cccc(O)c4)c4ccc([nH]4)c(-c4cccc(O)c4)c4nc(c(-c5cccc(O)c5)c5ccc2[nH]5)CC4)C=C3)c1` [TEMOPORFIN]: the pIC50 in data set [1] was 7.08.

For `C/C(=N/NC(=O)OC(C)(C)C)c1c2nc(c(-c3ccc(O)cc3)c3ccc([nH]3)c3ccc([nH]3)c(-c3ccc(O)cc3)c3ccc1[nH]3)C=C2`, the pIC50 in [1] was 6.38; in [7], 6.84. Further, the Activity was 0.249 in [2]; “Non-toxic” in the data set with NCI-H1299 [3]; 0.18 in data set [4]; 0.114 in [6]; “Non-toxic” with A549 [8].

As to `CC(C)(C)OC(=O)N/N=C(/c1ccccc1)c1c2nc(c(-c3ccc(O)cc3)c3ccc([nH]3)c3ccc([nH]3)c(-c3ccc(O)cc3)c3ccc1[nH]3)C=C2`, the pIC50 in [1] was 7.05; in data set [7] it was 7.25. Moreover, the Activity is 0.234 in [2]; “Non-toxic” in the data set with NCI-H1299 [3]; 0.21 in data set [4]; 0.118 in [6]; “Non-toxic” with A549 [8].

In the case of `C/C(=N/NC(=O)OC(C)(C)C)c1c2nc(c(-c3cccc(O)c3)c3ccc([nH]3)c3ccc([nH]3)c(-c3cccc(O)c3)c3ccc1[nH]3)C=C2`, the pIC50 in [1] is 6.86; in [7] it was 7.17. In addition, the Activity is 0.283 in data set [2]; “Non-toxic” in the data set with NCI-H1299 [3]; 0.26 in data set [4]; 0.133 in data set [6]; “Non-toxic” in the data set with A549 [8].

The values above are taken from ChEMBL document CHEMBL6087389, “Hydrazone-Functionalized trans-A2B-Corroles: Effective Synergy in Photodynamic Therapy of Lung Cancer” (J Med Chem, 2024).
